Test system: HT-1080
Assay: Modulatory profiling: Alamar Blue viability, lethal compound cotreated with death modulator (EC50, AUC); for AUC HT.BHA: reference of the scale not given here; for AUC HT.EGTA: reference of the scale not given here
Format: cell-based
Set-up: AUC, modulator HT.3MA / AUC, modulator HT.ALLN / AUC HT.ATA / AUC HT.ActD / AUC HT.BHA / AUC HT.BHT / AUC HT.BocD / AUC HT.CHX / AUC HT.Co2+ / AUC HT.DPQ / AUC HT.EGTA / AUC HT.Lmim / AUC HT.NAD+ / AUC HT.Nec-1 / AUC HT.SP600125 / AUC HT.TLCK / AUC HT.U0126: unit not given beside the values
Settings: for AUC HT.ATA: HT-1080, modulator ATA; for AUC HT.ActD: HT-1080, modulator ActD; for AUC HT.BHA: HT-1080, modulator BHA; for AUC HT.BHT: HT-1080, modulator BHT; for AUC HT.BocD: HT-1080, modulator BocD; for AUC HT.CHX: HT-1080, modulator CHX; for AUC HT.Co2+: HT-1080, modulator Co2+; for AUC HT.CspA: HT-1080, modulator CspA; for AUC HT.DPQ: HT-1080, modulator DPQ; for AUC HT.EGTA: HT-1080, modulator EGTA; for AUC HT.Gd3+: HT-1080, modulator Gd3+; for AUC HT.LNAME: HT-1080, modulator LNAME; for AUC HT.Lmim: HT-1080, modulator Lmim; for AUC HT.NAD+: HT-1080, modulator NAD+; for AUC HT.NMMA: HT-1080, modulator NMMA; for HT.atoc (AUC) / HT.bCarotene (AUC) / HT.deferox (AUC) / HT.digoxin (AUC) / HT.trolox (AUC) / HT.zVAD (AUC) / EC50: HT-1080; for HT.atoc (AUC): modulator atoc; for HT.bCarotene (AUC): modulator bCarotene; for HT.deferox (AUC): modulator deferox; for HT.digoxin (AUC): modulator digoxin; for HT.trolox (AUC): modulator trolox; for HT.zVAD (AUC): modulator zVAD; for AUC, modulator HT.3MA / AUC, modulator HT.ALLN: HT-1080 cells, modulatory profile value (AUC); for AUC, modulator HT.3MA: lethal compound cotreated with modulator 3MA; for AUC, modulator HT.ALLN: lethal compound cotreated with modulator ALLN; for effect of ferroptosis inhibitors (iron chelators and lipophilic antioxidants) on lethality in modulatory profiling: HT-1080 and BJeLR; for EC50: Homo sapiens, HT-1080, 48 h, 48 h
[1] = cotreated with antioxidant Atoc
[2] = cotreated with antioxidant Trolox
[3] = cotreated with iron-chelator Deferoxamine
[4] = cotreated with iron-chelator Lmim

Row | Compound | AUC HT.ATA | AUC HT.ActD | AUC HT.BHA | AUC HT.BHT | AUC HT.BocD | AUC HT.CHX | AUC HT.Co2+ | AUC HT.CspA | AUC HT.DPQ | AUC HT.EGTA | AUC HT.Gd3+ | AUC HT.LNAME | AUC HT.Lmim | AUC HT.NAD+ | AUC HT.NMMA | HT.atoc (AUC) | HT.bCarotene (AUC) | HT.deferox (AUC) | HT.digoxin (AUC) | HT.trolox (AUC) | further results
1 | O=c1c(Cl)c(Cl)cnn1-c1ccc(Cl)c(C(F)(F)F)c1 [CIL25] | 0.06489 | −0.03585 | −0.01547 | −0.1041 | 0.05183 | −0.01604 | −0.06128 | 0.01073 | 0.02629 | 0.01624 | 0.01713 | 0.02663 | 0.01684 | −0.03051 | −0.006639 | 0.04405 | 0.009082 | 0.07763 | −0.007149 | −0.02562 | HT.zVAD (AUC): 0.03342; AUC, modulator HT.3MA: 0.01605; AUC, modulator HT.ALLN: −0.0257
2 | CC1CC2=C(CC1CNCCCN(C)C)C(C)(C)CCC2 (stereo not shown) [CIL26] | 0.04192 | −0.002488 | −0.1441 | −0.1215 | 0.008992 | −0.02052 | −0.02744 | −0.04225 | 0.02987 | 0.009998 | −0.005334 | 0.001215 | −0.004 | −0.01406 | −0.009692 | 0.04649 | −0.03349 | −0.1033 | −0.03641 | −0.0327 | HT.zVAD (AUC): −0.01226; AUC, modulator HT.3MA: 0.0321; AUC, modulator HT.ALLN: 0.001592
3 | CC(C)=CCCC1=CCC(CNCCCN(C)C)C(C)C1 (stereo not shown) [CIL28] | 0.06113 | −0.01352 | −0.1362 | −0.1108 | 0.01462 | 0.0328 | −0.03292 | −0.01858 | 0.04404 | 0.005868 | −0.02583 | −0.0045 | 0.001311 | 0.007089 | −0.009763 | 0.1068 | −0.03341 | −0.04312 | −0.007104 | −0.03025 | HT.zVAD (AUC): −0.009003; AUC, modulator HT.3MA: 0.0937; AUC, modulator HT.ALLN: 0.04719
4 | O=C(/C=C/c1cccc(NC(=O)c2cccs2)c1)c1ccccc1 [CIL33] | 0.04655 | −0.03269 | −0.02938 | −0.1089 | 0.006307 | 0.06763 | 0.1418 | −0.03213 | 0.02728 | −0.007461 | −0.02182 | 0.003047 | −0.007068 | −0.0189 | −0.002248 | 0.04094 | −0.01651 | 0.1056 | −0.03413 | −0.05079 | HT.zVAD (AUC): 0.03457; AUC, modulator HT.3MA: 0.08789; AUC, modulator HT.ALLN: 0.04123
5 | CCCCNc1c(Cl)cnn(-c2ccccc2)c1=O [CIL36] | 0.05274 | −0.04409 | 0.0054 | −0.1272 | 0.002169 | −0.06645 | 0.02821 | 0.01593 | 0.05193 | −0.01311 | −0.04267 | −0.02799 | 0.004214 | −0.06378 | −0.009501 | 0.08942 | −0.005276 | 0.06452 | −0.03557 | 0.002425 | HT.zVAD (AUC): −0.003588; AUC, modulator HT.3MA: 0.08327; AUC, modulator HT.ALLN: 0.1422
6 | CN(C)CCCOS(=O)(=O)c1ccc(N2CCC(c3ccc(Cl)cc3)=N2)cc1 [CIL40] | 0.06692 | −0.06544 | −0.09372 | −0.1505 | 0.01176 | −0.02863 | 0.04911 | −0.04697 | 0.04908 | −0.02642 | −0.0186 | −0.01999 | 0.0004825 | −0.04749 | −0.006901 | 0.1232 | −0.01785 | −0.08111 | −0.03539 | −0.02768 | HT.zVAD (AUC): 0.01717; AUC, modulator HT.3MA: 0.0807; AUC, modulator HT.ALLN: 0.1761
7 | N/C(=N\OC(=O)C12CC3CC(CC(C3)C1)C2)c1ccccc1 [CIL41] | 0.02643 | −0.09343 | 0.1312 | 0.009338 | −0.01678 | −0.05459 | 0.06389 | 9.4409E−05 | 0.04282 | 0.02946 | −0.02592 | −0.0121 | 0.1377 | −0.008657 | −0.01029 | 0.316 | −0.02182 | 0.1795 | −0.09255 | 0.161 | HT.zVAD (AUC): −0.0167; effect of ferroptosis inhibitors (iron chelators and lipophilic antioxidants) on lethality in modulatory profiling: suppression by canonical ferroptosis inhibitors; AUC, modulator HT.3MA: 0.04521; AUC, modulator HT.ALLN: 0.09324; EC50 (DMSO): 5.67 µM; EC50 (cotreated with MEK inh U0126): 20.9 µM; EC50 [1]: 50 µM; EC50 (cotreated with antioxidant BHA): 26 µM; EC50 (cotreated with antioxidant BHT): 12.6 µM; EC50 [2]: 23.4 µM; EC50 [3]: 124 µM; EC50 [4]: 69.8 µM
8 | O=P(Oc1ccccc1)(Oc1ccccc1)O[C@@H]1C=CS(=O)(=O)C1 [CIL44] | 0.0592 | 0.01649 | −0.02559 | −0.1007 | −0.0552 | 0.02874 | −0.04658 | −0.01586 | −0.01669 | −0.007267 | −0.01147 | −0.02505 | −0.007614 | −0.07144 | −0.0419 | 0.04386 | −0.02012 | 0.1041 | 0.01992 | −0.02106 | HT.zVAD (AUC): 0.01751; AUC, modulator HT.3MA: 0.07356; AUC, modulator HT.ALLN: 0.1392
9 | CCc1ccc(/C=C2/SC(=O)N(CCC(C)NCCCN3CCOCC3)C2=O)cc1 (stereo not shown) [CIL46] | 0.0162 | −0.02916 | −0.1015 | −0.1471 | −0.04371 | −0.01909 | −0.1082 | 0.0003356 | −0.001692 | −0.01699 | −0.008617 | −0.02805 | −0.03166 | −0.06754 | 0.001557 | 0.04736 | −0.01026 | 0.03467 | −0.04671 | −0.0145 | HT.zVAD (AUC): 0.01724; AUC, modulator HT.3MA: 0.08624; AUC, modulator HT.ALLN: 0.03767
10 | COc1ccc(-n2nnnc2S(=O)(=O)CC(=O)N2CCCCC2)cc1 [CIL48] | 0.04684 | 0.01673 | −0.06966 | −0.1547 | −0.03823 | 0.0148 | 0.0307 | 0.002689 | −0.0003728 | 0.01715 | −0.003556 | −0.04087 | −0.01757 | −0.05465 | −0.01902 | 0.09021 | −0.00845 | 0.1268 | −0.01513 | −0.02612 | HT.zVAD (AUC): −0.005053; AUC, modulator HT.3MA: 0.0854; AUC, modulator HT.ALLN: 0.1611
11 | CCCCS(=O)(=O)/C=C\C=C/S(=O)(=O)CCCC [CIL49] | 0.04768 | −0.01874 | −0.01433 | −0.08297 | −0.0224 | −0.009484 | 0.008808 | 0.04471 | −0.02418 | 0.02252 | 0.000907 | 0.01289 | −0.03685 | −0.01413 | 0.000429 | 0.02137 | −0.02606 | 0.07453 | 0.001647 | −0.01523 | HT.zVAD (AUC): 0.009879; AUC, modulator HT.3MA: 0.05435; AUC, modulator HT.ALLN: 0.0662
12 | O=S(=O)(c1ccc2c(c1)C(=NO)c1cc(S(=O)(=O)N3CCCCC3)ccc1-2)N1CCCCC1 [CIL56, 2,7-bis(piperidin-1-ylsulfonyl)-9H-fluoren-9-one oxime] | −0.01939 | −0.124 | 0.1774 | 0.0146 | −0.0127 | −0.07234 | 0.01296 | 0.01564 | 0.06245 | 0.02378 | −0.01542 | 0.05375 | 0.1017 | 0.02315 | −0.01475 | 0.2436 | 0.05423 | 0.1269 | −0.1402 | 0.1421 | HT.zVAD (AUC): 0.03666; effect of ferroptosis inhibitors (iron chelators and lipophilic antioxidants) on lethality in modulatory profiling: suppression by canonical ferroptosis inhibitors; EC50 (DMSO): 0.443 µM; EC50 (cotreated with MEK inh U0126): 2.81 µM; EC50 [1]: 2.49 µM; EC50 (cotreated with antioxidant BHA): 2.65 µM; EC50 (cotreated with antioxidant BHT): 1.69 µM; EC50 [2]: 1.31 µM; EC50 [3]: 1.36 µM; EC50 [4]: 1.53 µM

From patent US10947188B2, “Small molecule ferroptosis inducers” (THE TRUSTEES OF COLUMBIA UNIVERSITY IN THE CITY OF NEW YORK, priority 2016, dated 2021)
